Measured values published in BindingDB's records for doi:10.1021/jm050680m (Johnson & Johnson Pharmaceutical Research and Development, 2005).

How the values were obtained:
[1] = Antiproliferative activity against PDGF-BB stimulated HCASMC
[2] = as above; remark: listed apart in the source

IC50 [1] [nM]	IC50 [2] [nM]	SMILES
32		COc1cc2c(cc1OC)-c1n[nH]c(Nc3cccc(Br)c3)c1C2 [3-bromo-N-(6,7-dimethoxy-2,4-dihydroindeno[1,2-c]pyrazol-3-yl)phenylamine]
	11	COC(=O)c1cccc(Nc2[nH]nc3c2Cc2cc(OC)c(OC)cc2-3)c1 [3-carbomethoxy-N-(6,7-dimethoxy-2,4-dihydroindeno[1,2-c]pyrazol-3-yl)phenylamine]
	1	COc1cc2c(cc1OC)-c1n[nH]c(Nc3cccc(C(F)(F)F)c3)c1C2 [3-trifluoromethyl-N-(6,7-dimethoxy-2,4-dihydroindeno[1,2-c]pyrazol-3-yl)phenylamine]
	487	COc1cccc2c1Cc1c-2n[nH]c1Nc1ccccc1 [(5-methoxy-2,4-dihydroindeno[1,2-c]pyrazol-3-yl)phenylamine]
	3	COc1cc2c(cc1OC)-c1n[nH]c(Nc3cccc(F)c3)c1C2 [JNJ-10198409]
